Structures are written as SMILES.

The target of one test is T1, androgen receptor (Homo sapiens, UniProt P10275, T878A).
T1 construct: Several compounds were selected and serial diluted (10×) with RPMI medium for treating LNCaP.FGC cells; host or cells: LNCaP.FGC
T1 sequence (P10275 whole entry T878A): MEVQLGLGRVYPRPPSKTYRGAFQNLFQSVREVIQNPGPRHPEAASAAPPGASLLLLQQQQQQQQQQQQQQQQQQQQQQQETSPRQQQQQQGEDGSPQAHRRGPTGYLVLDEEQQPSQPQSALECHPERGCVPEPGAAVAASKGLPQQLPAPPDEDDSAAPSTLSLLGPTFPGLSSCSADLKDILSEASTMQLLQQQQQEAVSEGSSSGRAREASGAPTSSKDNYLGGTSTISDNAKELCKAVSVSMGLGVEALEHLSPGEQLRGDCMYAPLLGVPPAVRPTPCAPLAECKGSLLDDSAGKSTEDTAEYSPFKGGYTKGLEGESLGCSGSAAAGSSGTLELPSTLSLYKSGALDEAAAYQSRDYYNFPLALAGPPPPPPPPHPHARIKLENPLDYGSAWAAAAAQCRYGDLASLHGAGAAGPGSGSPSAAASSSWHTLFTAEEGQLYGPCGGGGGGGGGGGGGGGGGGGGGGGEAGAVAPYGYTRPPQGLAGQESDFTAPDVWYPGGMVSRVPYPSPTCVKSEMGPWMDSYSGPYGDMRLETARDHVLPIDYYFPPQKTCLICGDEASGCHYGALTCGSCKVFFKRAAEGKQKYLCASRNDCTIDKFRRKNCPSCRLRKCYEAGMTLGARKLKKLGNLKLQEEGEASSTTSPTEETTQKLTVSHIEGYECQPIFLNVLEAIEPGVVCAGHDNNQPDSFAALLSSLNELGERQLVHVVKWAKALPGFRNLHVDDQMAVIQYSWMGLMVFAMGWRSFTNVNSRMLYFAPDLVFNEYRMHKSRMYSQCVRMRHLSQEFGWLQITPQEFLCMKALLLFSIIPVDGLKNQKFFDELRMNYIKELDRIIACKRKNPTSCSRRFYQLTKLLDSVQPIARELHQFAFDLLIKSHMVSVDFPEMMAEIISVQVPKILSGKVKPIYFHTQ
T1 sequence (Q96SW2 whole entry partner): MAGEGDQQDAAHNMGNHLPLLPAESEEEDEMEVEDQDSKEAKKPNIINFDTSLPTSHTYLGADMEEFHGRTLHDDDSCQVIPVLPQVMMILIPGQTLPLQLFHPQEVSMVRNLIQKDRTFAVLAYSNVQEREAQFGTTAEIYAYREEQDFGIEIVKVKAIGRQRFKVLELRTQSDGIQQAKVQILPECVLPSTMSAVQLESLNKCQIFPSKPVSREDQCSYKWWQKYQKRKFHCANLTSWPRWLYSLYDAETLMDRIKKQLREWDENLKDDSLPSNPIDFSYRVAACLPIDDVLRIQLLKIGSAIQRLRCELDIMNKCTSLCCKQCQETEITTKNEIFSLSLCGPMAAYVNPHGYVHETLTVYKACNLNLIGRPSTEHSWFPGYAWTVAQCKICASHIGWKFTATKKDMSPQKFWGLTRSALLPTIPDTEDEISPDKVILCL
Put plainly: Androgen receptor degradation assay using Western blot analysis in LNCaP.FGC cells. Format: cell-based. The following applies: concentration needed for 50% AR degradation, 24 hr treatment, read-out: AR DC50. The method, then: The internal loading control GAPDH was detected using a mouse monoclonal antibody (1:5000) (GTX627408, GeneTex International Corp., HsinChu City, Taiwan R.O.C.) and a goat anti-mouse HRP-conjugated secondary antibody (1:5000 dilution) (C04001, Croyez Bioscience Co., Ltd., Taipei City, Taiwan R.O.C.).
Several compounds were selected and serial diluted (10×) with RPMI medium for treating LNCaP.FGC cells. A calibration curve was determined by the serial diluted samples for each compound, and the concentration needed for 50% AR degradation (AR DC50) for each compound was calculated.
Take `Cn1c2c(c3ccc(N4CCN(CC5CN(c6ccc(C(=O)N[C@H]7CC[C@H](Oc8ccc(C#N)c(Cl)c8)CC7)nn6)C5)CC4)cc31)C(=O)N(C1CCC(=O)NC1=O)C2=O` (stereo partly shown) [Compound 1]: the DC50 was less than 10 nM.
Same read-out and setting: the result for `Cn1c2c(c3ccc(C4CCN(CC5CN(c6ccc(C(=O)N[C@H]7CC[C@H](Oc8ccc(C#N)c(Cl)c8)CC7)nn6)C5)CC4)cc31)C(=O)N(C1CCC(=O)NC1=O)C2=O` (stereo partly shown) [Compound 2] reads less than 10 nM; that for `Cn1c2c(c3ccc(N4CCN(CC5CCN(c6ccc(C(=O)N[C@H]7CC[C@H](Oc8ccc(C#N)c(Cl)c8)CC7)nn6)CC5)CC4)cc31)C(=O)N(C1CCC(=O)NC1=O)C2=O` (stereo partly shown) [Compound 21], less than 10 nM; that for `Cn1c2c(c3ccc(N4CCN(CC5CCN(c6ccc(C(=O)N[C@H]7CC[C@@H](Oc8ccc(C#N)c(Cl)c8)CC7)nn6)CC5)CC4)cc31)C(=O)N(C1CCC(=O)NC1=O)C2=O` (stereo partly shown) [Compound 22], 10 to 25 nM.
The same measure, in the same setting: the same measure for `Cn1c2c(c3ccc(N4CCN(CC5CCN(c6ccc(C(=O)N[C@H]7C(C)(C)[C@H](Oc8ccc(C#N)c(Cl)c8)C7(C)C)cn6)CC5)CC4)cc31)C(=O)N(C1CCC(=O)NC1=O)C2=O` (stereo partly shown) [Compound 27]: 10 to 25 nM.
For `Cn1c2c(c3ccc(N4CCN(CC5CCN(c6ccc(C(=O)N[C@H]7C(C)(C)[C@@H](Oc8ccc(C#N)c(Cl)c8)C7(C)C)cn6)CC5)CC4)cc31)C(=O)N(C1CCC(=O)NC1=O)C2=O` (stereo partly shown) [Compound 28], the DC50 fell in the range of 25 to 100 nM.
For `Cn1c2c(c3ccc(C4CCN(CC5CCN(c6ccc(C(=O)N[C@H]7CC[C@H](Oc8ccc(C#N)c(Cl)c8)CC7)nn6)CC5)CC4)cc31)C(=O)N(C1CCC(=O)NC1=O)C2=O` (stereo partly shown) [Compound 29], the DC50 was 10 to 25 nM.
The same measure, in the same setting: the same measure for `Cn1c2c(c3ccc(C4CCN(CC5CCN(c6ccc(C(=O)N[C@H]7CC[C@@H](Oc8ccc(C#N)c(Cl)c8)CC7)nn6)CC5)CC4)cc31)C(=O)N(C1CCC(=O)NC1=O)C2=O` (stereo partly shown) [Compound 30]: less than 10 nM.
As to `Cn1c2c(c3ccc(C4CCN(CC5CCN(c6ccc(C(=O)N[C@H]7CC[C@H](Oc8ccc(C#N)c(Cl)c8)CC7)nn6)C5)CC4)cc31)C(=O)N(C1CCC(=O)NC1=O)C2=O` (stereo partly shown) [Compound 34], the DC50 lay within 10 to 25 nM.
Same read-out and setting: the result for `Cn1c2c(c3ccc(N4CCN(CC5CCN(c6ncc(C(=O)N[C@H]7CC[C@H](Oc8ccc(C#N)c(Cl)c8)CC7)cn6)CC5)CC4)cc31)C(=O)N(C1CCC(=O)NC1=O)C2=O` (stereo partly shown) [Compound 35] reads 10 to 25 nM; that for `Cn1c2c(c3cc(N4CCN(CC5CCN(c6ccc(C(=O)N[C@H]7CC[C@H](Oc8ccc(C#N)c(Cl)c8)CC7)nn6)CC5)CC4)ccc31)C(=O)N(C1CCC(=O)NC1=O)C2=O` (stereo partly shown) [Compound 41], greater than 100 nM; that for `Cn1c2c(c3cc(N4CCN(CC5CCN(c6ccc(C(=O)N[C@H]7CC[C@@H](Oc8ccc(C#N)c(Cl)c8)CC7)nn6)CC5)CC4)ccc31)C(=O)N(C1CCC(=O)NC1=O)C2=O` (stereo partly shown) [Compound 42], 25 to 100 nM.
`Cn1c2c(c3cc(N4CCN(CC5CN(c6ccc(C(=O)N[C@H]7CC[C@H](Oc8ccc(C#N)c(Cl)c8)CC7)nn6)C5)CC4)ccc31)C(=O)N(C1CCC(=O)NC1=O)C2=O` (stereo partly shown) [Compound 47]: the DC50 lay within 25 to 100 nM.

The test is the same for the next values; noted with them: read-out: AR DC50, concentration needed for 50% AR degradation, 24 hr treatment.
Turning to `CCn1c2c(c3ccc(N4CCN(CC5CN(c6ccc(C(=O)N[C@H]7CC[C@H](Oc8ccc(C#N)c(Cl)c8)CC7)nn6)C5)CC4)cc31)C(=O)N(C1CCC(=O)NC1=O)C2=O` (stereo partly shown) [Compound 3], the DC50 is less than 10 nM.
As to `CCn1c2c(c3ccc(N4CCN(CC5CCN(c6ccc(C(=O)N[C@H]7CC[C@H](Oc8ccc(C#N)c(Cl)c8)CC7)cn6)CC5)CC4)cc31)C(=O)N(C1CCC(=O)NC1=O)C2=O` (stereo partly shown) [Compound 4], the DC50 lay within 25 to 100 nM.
Consider `CCn1c2c(c3ccc(N4CCN(CC5CCN(c6ccc(C(=O)N[C@H]7CC[C@@H](Oc8ccc(C#N)c(Cl)c8)CC7)cn6)CC5)CC4)cc31)C(=O)N(C1CCC(=O)NC1=O)C2=O` (stereo partly shown) [Compound 5], for which the DC50 was 25 to 100 nM.
The same measure, in the same setting: the same measure for `CCn1c2c(c3ccc(N4CCN(CC5CCN(c6ccc(C(=O)N[C@H]7C(C)(C)[C@H](Oc8ccc(C#N)c(Cl)c8)C7(C)C)cn6)CC5)CC4)cc31)C(=O)N(C1CCC(=O)NC1=O)C2=O` (stereo partly shown) [Compound 6]: 25 to 100 nM; for `CCn1c2c(c3ccc(N4CCN(CC5CCN(c6ccc(C(=O)N[C@H]7C(C)(C)[C@@H](Oc8ccc(C#N)c(Cl)c8)C7(C)C)cn6)CC5)CC4)cc31)C(=O)N(C1CCC(=O)NC1=O)C2=O` (stereo partly shown) [Compound 7]: 25 to 100 nM; for `CCn1c2c(c3ccc(N4CCN(CC5CCN(c6ccc(C(=O)N[C@H]7C(C)(C)[C@H](Oc8ccc(C#N)c(Cl)c8)C7(C)C)nn6)CC5)CC4)cc31)C(=O)N(C1CCC(=O)NC1=O)C2=O` (stereo partly shown) [Compound 8]: 25 to 100 nM.
As for `CCn1c2c(c3ccc(N4CCN(CC5CCN(c6ccc(C(=O)N[C@H]7C(C)(C)[C@@H](Oc8ccc(C#N)c(Cl)c8)C7(C)C)nn6)CC5)CC4)cc31)C(=O)N(C1CCC(=O)NC1=O)C2=O` (stereo partly shown) [Compound 9], the DC50 was in the range of 25 to 100 nM.
For the molecule `CCn1c2c(c3ccc(C4CCN(CC5CN(c6ccc(C(=O)N[C@H]7CC[C@H](Oc8ccc(C#N)c(Cl)c8)CC7)nn6)C5)CC4)cc31)C(=O)N(C1CCC(=O)NC1=O)C2=O` (stereo partly shown) [Compound 10], the DC50 is less than 10 nM.
Take `CCn1c2c(c3ccc(C4CCN(CC5CCN(c6ccc(C(=O)N[C@H]7CC[C@H](Oc8ccc(C#N)c(Cl)c8)CC7)nn6)CC5)CC4)cc31)C(=O)N(C1CCC(=O)NC1=O)C2=O` (stereo partly shown) [Compound 11]: the DC50 is less than 10 nM.
`CCn1c2c(c3ccc(C4CCN(CC5CCN(c6ccc(C(=O)N[C@H]7CC[C@@H](Oc8ccc(C#N)c(Cl)c8)CC7)nn6)CC5)CC4)cc31)C(=O)N(C1CCC(=O)NC1=O)C2=O` (stereo partly shown) [Compound 12]: the DC50 is 10 to 25 nM.
Take `CCn1c2c(c3ccc(N4CCN(CC5CCN(c6ccc(C(=O)N[C@H]7C(C)(C)[C@H](Oc8ccc(C#N)c(Cl)c8)C7(C)C)cc6)CC5)CC4)cc31)C(=O)N(C1CCC(=O)NC1=O)C2=O` (stereo partly shown) [Compound 15]: the DC50 lay in the range of 25 to 100 nM.
Still for that read-out and setting: the result for `CCn1c2c(c3ccc(N4CCN(CC5CCN(c6ccc(C(=O)N[C@H]7C(C)(C)[C@@H](Oc8ccc(C#N)c(Cl)c8)C7(C)C)cc6)CC5)CC4)cc31)C(=O)N(C1CCC(=O)NC1=O)C2=O` (stereo partly shown) [Compound 16] reads greater than 100 nM.
In the case of `CCn1c2c(c3ccc(N4CCN(CC5CCN(c6ccc(C(=O)N[C@H]7CC[C@H](Oc8ccc(C#N)c(Cl)c8)CC7)nn6)C5)CC4)cc31)C(=O)N(C1CCC(=O)NC1=O)C2=O` (stereo partly shown) [Compound 17], the DC50 was in the range of 10 to 25 nM.
Take `CCn1c2c(c3ccc(C4CCN(CC5CCN(c6ccc(C(=O)N[C@H]7CC[C@H](Oc8ccc(C#N)c(Cl)c8)CC7)nn6)C5)CC4)cc31)C(=O)N(C1CCC(=O)NC1=O)C2=O` (stereo partly shown) [Compound 18]: the DC50 lay within 10 to 25 nM.
As to `CCn1c2c(c3ccc(N4CCN(CC5CCN(c6ccc(C(=O)N[C@H]7CC[C@H](Oc8ccc(C#N)c(Cl)c8)CC7)nn6)CC5)CC4)cc31)C(=O)N(C1CCC(=O)NC1=O)C2=O` (stereo partly shown) [Compound 23], the DC50 is 10 to 25 nM.
Turning to `CCn1c2c(c3ccc(C4CCN(CC5CCN(c6ccc(C(=O)N[C@H]7C(C)(C)[C@H](Oc8ccc(C#N)c(Cl)c8)C7(C)C)cc6)CC5)CC4)cc31)C(=O)N(C1CCC(=O)NC1=O)C2=O` (stereo partly shown) [Compound 24], the DC50 lay in the range of 25 to 100 nM.
Same read-out and setting: the same measure for `CCn1c2c(c3ccc(N4CCN(CC5CCN(c6ncc(C(=O)N[C@H]7CC[C@H](Oc8ccc(C#N)c(Cl)c8)CC7)cn6)CC5)CC4)cc31)C(=O)N(C1CCC(=O)NC1=O)C2=O` (stereo partly shown) [Compound 25]: 10 to 25 nM; for `CCn1c2c(c3ccc(N4CCN(CC5CCN(c6ncc(C(=O)N[C@H]7CC[C@@H](Oc8ccc(C#N)c(Cl)c8)CC7)cn6)CC5)CC4)cc31)C(=O)N(C1CCC(=O)NC1=O)C2=O` (stereo partly shown) [Compound 26]: greater than 100 nM.
For the molecule `CCn1c2c(c3ccc(N4CCN(CC5CCN(c6ccc(C(=O)N[C@H]7CC[C@@H](Oc8ccc(C#N)c(Cl)c8)CC7)nn6)CC5)CC4)cc31)C(=O)N(C1CCC(=O)NC1=O)C2=O` (stereo partly shown) [Compound 33], the DC50 is less than 10 nM.
Regarding `CCn1c2c(c3ccc(N4CCN(CC5CCN(c6ccc(C(=O)N[C@H]7CC[C@H](Oc8ccc(C#N)c(Cl)c8)CC7)nn6)CC5)CC4)cc31)C(=O)N([C@H]1CCC(=O)NC1=O)C2=O` [Compound 36], the DC50 fell in the range of 10 to 25 nM.
Consider `CCn1c2c(c3ccc(N4CCN(CC5CCN(c6ccc(C(=O)N[C@H]7CC[C@@H](Oc8ccc(C#N)c(Cl)c8)CC7)nn6)CC5)CC4)cc31)C(=O)N([C@H]1CCC(=O)NC1=O)C2=O` [Compound 39], for which the DC50 was in the range of 10 to 25 nM.
In the case of `CCn1c2c(c3ccc(N4CCC(CN5CCC(c6ccc(C(=O)N[C@H]7CC[C@H](Oc8ccc(C#N)c(Cl)c8)CC7)nn6)CC5)CC4)cc31)C(=O)N(C1CCC(=O)NC1=O)C2=O` (stereo partly shown) [Compound 40], the DC50 fell in the range of 10 to 25 nM.
In the case of `CCn1c2c(c3ccc(C4=CCN(CC5CCN(c6ccc(C(=O)N[C@H]7CC[C@H](Oc8ccc(C#N)c(Cl)c8)CC7)nn6)CC5)CC4)cc31)C(=O)N(C1CCC(=O)NC1=O)C2=O` (stereo partly shown) [Compound 48], the DC50 lay within 10 to 25 nM.
As for `CCn1c2c(c3ccc(N4CCC5(CC4)CN(CC4CCN(c6ccc(C(=O)N[C@H]7CC[C@H](Oc8ccc(C#N)c(Cl)c8)CC7)nn6)CC4)C5)cc31)C(=O)N(C1CCC(=O)NC1=O)C2=O` (stereo partly shown) [Compound 51], the DC50 is less than 10 nM.

Source of the values: patent US20260248926A1, “BIFUNCTIONAL COMPOUND AND PHARMACEUTICAL COMPOSITION COMPRISING THE BIFUNCTIONAL COMPOUND, AND METHOD FOR TREATING ANDROGEN RECEPTOR RELATED DISEASE BY USING THE SAME” (ANHORN MEDICINES CO., LTD., priority 2022, published 2026).
